Test results taken from patent US20200325140A1, “FUSED BICYCLIC COMPOUNDS FOR THE TREATMENT OF DISEASE” (Akarna Therapeutics, Ltd., priority 2016, published 2020).

Target: T1, FXR (Homo sapiens, UniProt Q96RI1)
T1 sequence (Q96RI1 1-486): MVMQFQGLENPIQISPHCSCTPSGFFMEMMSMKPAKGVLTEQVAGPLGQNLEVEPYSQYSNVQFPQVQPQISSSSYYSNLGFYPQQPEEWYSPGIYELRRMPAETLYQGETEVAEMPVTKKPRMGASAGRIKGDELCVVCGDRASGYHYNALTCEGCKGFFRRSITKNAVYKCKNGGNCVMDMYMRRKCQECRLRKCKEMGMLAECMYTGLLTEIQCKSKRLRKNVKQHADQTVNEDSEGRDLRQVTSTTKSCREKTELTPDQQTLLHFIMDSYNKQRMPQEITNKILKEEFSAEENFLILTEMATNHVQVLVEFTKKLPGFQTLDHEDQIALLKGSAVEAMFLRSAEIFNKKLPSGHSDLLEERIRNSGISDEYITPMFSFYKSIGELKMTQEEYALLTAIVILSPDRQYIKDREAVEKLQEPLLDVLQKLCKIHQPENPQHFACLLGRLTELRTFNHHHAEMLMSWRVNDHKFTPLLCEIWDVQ
Assay: FXR Agonist Assay (Gaussia luciferase reporter in cells)
Assay type: cell-based
Details: 20 hours incubation, 10-point dilution, duplicate
Method: Starting from 3.33 mM of compound in DMSO solution, a 10-point 3-fold serial dilution was made by diluting 5 μL of compound into 10 μL of DMSO. The serially diluted compound was then diluted 1:33 into DMEM. This medium was then diluted ten-fold into the culture medium with the cells (10 μL/well). All concentration points are assayed in duplicate. Plates were incubated at 37° C. for 20 hours. After the incubation, 20 μL of culture medium were removed from each well and mixed with 50 μL of assay solution (Pierce™ Gaussia Luciferase Flash Assay Kit). The luminescence was measured immediately after addition of the Luc substrate with an Envision microplate reader. The raw data was uploaded to CDD and dose-response curves were generated using the Levenberg-Marquardt algorithm integrated into CDD. A negative control DMSO is included on each plate and used to normalize the data with the CDD built-in normalization function.

Row | EC50 | Compound
1 | 200 to 1000 nM | CC(C)OC(=O)C1=CN(C(=O)c2ccc(OCCN(C)C)cc2)CC(C)(C)c2c(C(F)(F)F)n[nH]c21 [Compound 1, (E)-isopropyl 6-(4-(2-(dimethylamino)ethoxy)benzoyl)-4,4-dimethyl-3-(trifluoromethyl)-1,4,5,6-tetrahydropyrazolo[3,4-d]azepine-8-carboxylate]
2 | < 200 nM | CC(C)OC(=O)C1=CN(C(=O)c2ccc(OCCn3ccnc3)cc2)CC(C)(C)c2c(C(F)(F)F)n[nH]c21 [Compound 2, (E)-isopropyl 6-(4-(2-(1H-imidazol-1-yl)ethoxy)benzoyl)-4,4-dimethyl-3-(trifluoromethyl)-1,4,5,6-tetrahydropyrazolo[3,4-d]azepine-8-carboxylate]
3 | 200 to 1000 nM | CC(C)OC(=O)C1=CN(C(=O)c2ccc(OCCN3CCN(C)CC3)cc2)CC(C)(C)c2c(C(F)(F)F)n[nH]c21 [Compound 3, (E)-isopropyl 4,4-dimethyl-6-(4-(2-(4-methylpiperazin-1-yl)ethoxy)benzoyl)-3-(trifluoromethyl)-1,4,5,6-tetrahydropyrazolo[3,4-d]azepine-8-carboxylate]
4 | 1000 to 10000 nM | CC(C)OC(=O)C1=CN(C(=O)c2ccc(OCCN3CCCC3)cc2)CC(C)(C)c2c(C(F)(F)F)n[nH]c21 [Compound 4, (E)-isopropyl 4,4-dimethyl-6-(4-(2-(pyrrolidin-1-yl)ethoxy)benzoyl)-3-(trifluoromethyl)-1,4,5,6-tetrahydropyrazolo[3,4-d]azepine-8-carboxylate]
5 | < 200 nM | CC(C)OC(=O)C1=CN(C(=O)c2cc(F)c(OCCN3CCOCC3)c(F)c2)CC(C)(C)c2c(C(F)(F)F)n[nH]c21 [Compound 5, (E)-isopropyl 6-(3,5-difluoro-4-(2-morpholinoethoxy)benzoyl)-4,4-dimethyl-3-(trifluoromethyl)-1,4,5,6-tetrahydropyrazolo[3,4-d]azepine-8-carboxylate]
